Measured values published in US20070154457A1, “Use of eIF-5A to kill multiple myeloma cells” (Senesco Technologies, Inc., priority 2005, published 2007).
Starred links: 1 amine or outer side, 2 acyl side, 3 side chain; linkers in the order of their positions; H or OH if unused. Positions of bridges follow the written chain, without caps; N, C: chain ends. Non-standard residues stand in square brackets, D forms with d. Residues, ends and D or L forms follow the SMILES beside them. Chains are numbered I, II in the order given. Actinocin(9to1) = Cc1c2oc3c(C)ccc(C(=O)[*:1])c3nc-2c(C(=O)[*:2])c(N)c1=O; NMeV = CN[C@H](C(=O)O)C(C)C; Sar = CNCC(=O)O

Columns and labels:
[1] = tested on: eIF5A1; test: Indirect immunofluorescence localization of eIF5A1 in HT-29 cells; assay type: cell-based, human
Method: HT-29 cells were cultured on poly-L-lysine-coated glass coverslips. Subconfluent cells were incubated for 16 hours with 200 Units of interferon gamma (IFN-γ; Roche Applied Science) followed by TNF-α (100 ng/ml; Leinco Technologies) for times varying from 10 minutes to 8 hours. Alternatively, cells were treated with 1.0 μg/ml Actinomycin D for increasing lengths of time from 30 minutes to 16 hours. The treated cells were fixed with 3% formaldehyde (methanol-free; Polysciences Inc.) for 20 minutes, washed twice for 5 minutes with PBS and once for 5 minutes with PBS containing 100 mM glycine, and permeabilized with 0.2% Triton X-100 in PBS for 4 minutes. Cells were then labeled for immunofluorescence using a standard protocol. The primary antibody was anti-eIF5A (BD Transduction Laboratories; mouse IgG) incubated at a dilution of 1:250 for 1 hour. The secondary antibody was anti-mouse IgG-AlexaFluor 488 (Molecular Probes) used at a dilution of 1:200 for 1 hour. Following antibody labeling, the nuclei were stained with Hoescht 33258, and the labeled cells were observed by fluorescent microscopy.

[2] = tested on: eIF5A1; test: 2-D gel electrophoresis and Western blot of eIF5A1 forms in HT-29 cells; assay type: cell-based, human; settings: HT-29, beginning 1 hour after treatment, disappearing 24 hours after treatment
Method: For 2-D gel electrophoresis, HT-29 cell lysate was harvested in cold lysis buffer (7M Urea, 2M Thiourea, 30 mM Tris, 4% CHAPS, protease inhibitor cocktail), sonicated and cleared of debris by centrifugation. Protein concentration was determined using the Bradford method. The first dimensional isolelectric focusing was performed with the Ettan IPGphor Isoelectric Focusing System (Amersham Biosciences) according to the manufacture's instruction. Immobiline DryStrips (7 cm pH 4-7; Amersham Biosciences) were rehydrated in rehydration buffer (8M Urea, 2% CHAPS, 0.2% DTT, 0.5% pH 4-7 IPG buffer, 0.002% Bromophenol blue) along with cell lysate at room temperature for 12 hours. The isoelectric focusing was performed at 500 V for 30 min, 1000 V for 30 min, and 5000 V for 1 hour and 40 min. The protein on the IPG strip gel was then separated by SDS-PAGE and transferred to a PVDF membrane (Amersham Biosciences). Western blotting was performed using eIF5A antibody (BD Biosciences).

[3] = tested on: eIF5A1; test: Western blot of eIF5A1 expression in normal colon fibroblasts; assay type: cell-based; settings: 0.5 μg/ml, 24 hours
Method: Protein for Western blotting was isolated using boiling lysis buffer [2% SDS, 50 mM Tris-HCl (pH 7.4)]. Protein concentrations were determined using the Bicinchoninic Acid Kit (Sigma). For Western blotting, 5 μg of total protein was fractionated on a 12% SDS-polyacrylamide gel and transferred to a polyvinylidene difluoride membrane. The primary antibodies used were anti-eIF5A (BD Transduction Laboratories; mouse IgG) and anti-β-actin (Oncogene; mouse IgM), both at a dilution of 1:20,000 in 5% milk. The secondary antibodies were anti-mouse IgG conjugated to horseradish peroxidase (HRP; Sigma) and anti-mouse IgM-HRP (Oncogene). Antibody-protein complexes were visualized using the enhanced chemiluminescence method (ECL, Amersham Biosciences). Following detection of eIF5A, the blots were stripped according to the protocol provided by the ECL Plus Western blotting detection system and reprobed with anti-β-actin antibody to confirm equal loading.

[4] = tested on: HT-29 cells; test: XTT and BrdU cell proliferation assays of HT-29 cells (siRNA, GC7); assay type: cell-based, human; settings: 50 μM for 72 hours, BrdU incorporation
Method: HT-29 cells were transfected with siRNA on 96-well plates using Lipofectamine 2000 (Invitrogen). Metabolic activity of proliferating cells was measured with the XTT Cell Proliferation Kit (Roche Applied Science). The BrdU Cell Proliferation Kit (Roche Applied Science) was used to measure DNA synthesis following the manufacturer's protocol. For XTT assays performed following adenovirus infection, 5000 cells were plated per well in a 96-well plate. The next day cells were infected with Ad-lacZ, Ad-eIF5A1 and Ad-eIF5A1(K50A) (Ad-eIF5A1M) respectively with untreated cells as negative control and Actinomycin D treated cell as positive control. XTT substrate was added and A475 nm was measured with A690 nm as the reference.

[5] = tested on: A549 lung carcinoma cells; test: Annexin/PI apoptosis by flow cytometry, A549 cells; assay type: cell-based; settings: A549 infected with Ad-eIF5A1; JNK inhibitor II 10 μM, U1026 10 μM, Pifithrin-a 30 μM
Method: A549 lung carcinoma cells were infected with either an adenovirus expressing LacZ (Lac) or eIF5A1 (5A). Four hours after infection, the media was replaced with media containing either DMSO, 10 μM of the p38 inhibitor SB203580 (Calbiochem), 10 μM of the JNK inhibitor II (Calbiochem), 10 μM of the MEK inhibitor U1026 (Calbiochem), or 30 μM of the p53 inhibitor Pifithrin-a (Calbiochem). Forty-eight hours later, the cells were harvested and the percentage of cells undergoing apoptosis was determined by Annexin/PI staining (BD Bioscience) followed by analysis by flow cytometry.

[6] = tested on: p53; test: Western blot of p53 and phosphorylated p53 in A549 cells; assay type: cell-based; settings: A549, inhibitor added 4 hours after infection (U1026 10 μM, Pifithrin-a 30 μM)
Method: (§1) Western blotting of lysate from A549 cells used for MAPK/SAPK pathway analysis was performed using lysate collected in MAPK lysis buffer (10 mM Tris-pH 7.4, 2% SDS, 10% glycerol). Ten micrograms of lysate was separated on 10% SDS-PAGE gels and transferred to a PVDF membrane. The membrane was blocked for one hour in 5% non-fat skim milk in PBS, washed with PBS and incubated with primary antibody at 1:1000 in 5% BSA/PBS-T overnight at 4° C. with shaking. The MAPK/SAPK antibodies (P-p38, p38, P-JNK, JNK, P-ERK, ERK, p90RSK) were purchased from Cell Signaling. The p53 antibodies used in the A549 study were also obtained from Cell Signaling and used in a similar fashion.
A549 lung carcinoma cells were infected with either an adenovirus expressing LacZ (Lac) or eIF5A1 (5A). Four hours after infection, the media was replaced with media containing either DMSO, 10 μM of the p38 inhibitor SB203580 (Calbiochem), 10 μM of the JNK inhibitor II (Calbiochem), 10 μM of the MEK inhibitor U1026 (Calbiochem), or 30 μM of the p53 inhibitor Pifithrin-a (Calbiochem). Forty-eight hours later, the cells were treated with EGF for 30 minutes and the cell lysate was harvested. Western blots were performed on the lysate using antibodies directed against either total p53 (p53), or p53 phosphorylated on serine 15 [P-p53(ser15)], or p53 phosphorylated on 37 [P-p53(ser37)].

[7] = tested on: MAPK/SAPK signaling pathways; test: Western blot of MAPK/SAPK pathway activation in A549 cells; assay type: cell-based; settings: A549 infected with Ad-eIF5A1 or Ad-eIF5A1(K50A), with MEK1 inhibitor
Method: as §1
HT-29 cells were infected with 3000 infectious units per cell and experiments with A549 cells were performed using 1500 infectious units per cell.

Cc1c2oc3c(C)ccc(C(=O)N[C@@H]4C(=O)N[C@H](C(C)C)C(=O)N5CCC[C@H]5C(=O)N(C)CC(=O)N(C)[C@@H](C(C)C)C(=O)O[C@@H]4C)c3nc-2c(C(=O)N[C@@H]2C(=O)N[C@H](C(C)C)C(=O)N3CCC[C@H]3C(=O)N(C)CC(=O)N(C)[C@@H](C(C)C)C(=O)O[C@@H]2C)c(N)c1=O [Actinomycin D] (I: T[dV]P[Sar][NMeV] / II: T[dV]P[Sar][NMeV]; ester I:1-I:C, II:1-II:C; linker I:N-II:N via Actinocin(9to1))
time to shift of eIF5A1 from cytoplasmic to nuclear localization [1]: ≤ 90 min
deoxyhypusinated form of eIF5A1 [2]: increase in the presence of the deoxyhypusinated form of eIF5A1
eIF5A1 protein expression [3]: up-regulated

N=C(N)NCCCCCCCN [GC7, N1-guanyl-1,7-diaminoheptane]
effect on the growth of the cells [4]: profound effect on the growth

O=C1c2ccccc2-c2n[nH]c3cccc1c23 [JNK inhibitor II]
effect of inhibitor on apoptosis induced by eIF5A1 [5]: increases apoptosis

N#CC(=C(/N)Sc1ccccc1N)/C(C#N)=C(/N)Sc1ccccc1N [U1026]
effect of inhibitor on apoptosis induced by eIF5A1 [5]: increases apoptosis
effect of inhibitor on Ad-eIF5A1-induced accumulation and phosphorylation of p53 [6]: inhibited
activation of JNK [7]: inhibited the activation of JNK
p38 activation [7]: increased p38 activation

Pifithrin-a
effect of inhibitor on apoptosis induced by eIF5A1 [5]: decreases apoptosis
effect of inhibitor on Ad-eIF5A1-induced accumulation and phosphorylation of p53 [6]: inhibited
